{"source": "patent US6703413B2", "about": "(Rhode Island Hospital, priority 1999, dated 2004)", "key": {"[1]": {"system": "NIH-3T3 murine fibroblasts", "experiment": "Cell growth inhibition, 3 d exposure, cell counting", "type": "cell-based", "protocol": "(§1) One ml of this cell suspension was added to each well of a 12 well cell culture plate that contained 3 ml of appropriate media plus serum. […] Control wells received 40 μl of 5% Kollidon 17 PF alone. Seventy-two hours later, all cells were harvested by trypsinization and cell number determined electronically using a Coulter Model Z1 particle counter (Coulter Corp., Miami, Fla.) to assess cell growth inhibition. Each experiment was performed in duplicate and repeated a minimum of three times.\n(§2) Cells were seeded at a density of 1-5×10^4 cells in each well of a 6 well tissue culture flask. […] After three days, cells were harvested by trypsinization and cell number determined electronically. Cell growth inhibition was determined by comparison to non-Taurolidine exposed control cultures. The IC50 was calculated as the concentration required to inhibit cell number by 50%."}, "[2]": {"system": "PA-1 human ovarian tumor cells", "experiment": "Cell growth inhibition, 3 d exposure, cell counting", "type": "cell-based", "conditions": "PA-1 (ovary)", "protocol": "as §1, §2"}, "[3]": {"system": "SKOV-3 human ovarian tumor xenografts", "experiment": "Therapeutic effectiveness against i.p. human ovarian tumor xenografts", "type": "in vivo, female nude mice", "description": "Fourteen days following the final Taurolidine injection, mice in all groups were sacrificed and the peritoneal cavity examined for the presence of tumors. Each experimental was repeated three times and the pooled number of animals in each group ranged from 15-21.\nFourteen days following the final Taurolidine injection, mice in all groups were sacrificed, i.p. ovarian tumor xenografts removed and tumor weighed. Each experiment was repeated three times and the pooled number of animals in each group ranged from 15-21. Each bar represents the mean (±SE) tumor weight of 15-21 animals. ***p≦0.001, **** p≦0.0001.\nTo evaluate therapeutic effectiveness, mice received a single intraperitoneal injection of 5×10^6 SKOV-3 cells in a volume of 0.5 ml. Immediately thereafter, mice were randomly divided into treatment groups of 7 animals. […] Control animals received 1 ml injections of 5% Kollidon 17 PF alone. Animals were examined daily and body weight recorded twice weekly. […] The mean tumor weight for each treatment group was calculated and statistical analysis of differences in the mean tumor weight between treatment groups employed the Student's t-test. p-values of ≦0.05 were considered significant.\nStudies next evaluated the antineoplastic activity of this regimen in mice bearing i.p. human ovarian tumor xenografts derived from the SKOV-3 cell line. Mice were injected i.p. with 5×10^6 SKOV-3 cells. […] Fourteen days following the termination of Taurolidine therapy, mice were sacrificed and all i.p. tumors removed and weighed."}, "[4]": {"system": "TNF; interleukins 1, 6, and 10; VEGF; TGF", "experiment": "Factors controlling angiogenesis in treated patients", "type": "in vivo, human", "conditions": "metastatic colon cancer patients, compared to placebo", "protocol": "Patients with metastatic colon cancer were treated with taurolidine and several factors controlling angiogenesis were measured."}, "[5]": {"conditions": "therapy delayed for up to 3 d after tumor cell injection"}, "[6]": {"conditions": "therapy initiated on the day of tumor cell injection"}}, "note": "Like-named read-outs stand apart in the source and are kept apart here."}
{"smiles": "O=S1(=O)CCN(CN2CCS(=O)(=O)NC2)CN1", "note": "[Taurolidine, Bis-(1,1-dioxoperhydro-1,2,4-thiadiazinyl-4)methane]", "values": [{"measurement": "IC50", "setting": "[1]", "value": "11.9 ± 1.8", "unit": "µM"}, {"measurement": "IC50", "setting": "[1]; Mus musculus, NIH3T3, 72 h", "value": "~10", "unit": "µM"}, {"measurement": "IC50", "setting": "[2]; Homo sapiens, 72 h", "value": "~10", "unit": "µM"}, {"measurement": "IC50", "setting": "[2]", "value": "11.4 ± 1.8", "unit": "µM"}, {"measurement": "ascites formation", "setting": "[3]; 20 mg/mouse/injection x 3 d i.p. from day of tumor cell injection", "value": "no evidence of ascites formation"}, {"measurement": "Mean tumor weight", "setting": "[3]; 20 mg/mouse/injection x 3 d i.p. from day of tumor cell injection, nineteen days after injection", "value": "less than 50 mgs"}, {"measurement": "mean tumor size versus controls", "setting": "[3]; [5]", "value": "significantly smaller than in controls"}, {"measurement": "mice tumor free upon sacrifice", "setting": "[3]; [5]", "value": "approximately 10%"}, {"measurement": "tumor growth", "setting": "[3]; therapy initiated 5 d after tumor cell injection (established i.p. tumors)", "value": "significantly inhibiting tumor growth"}, {"measurement": "mean tumor size in treated mice with tumors, smaller than control", "setting": "[3]; [6]", "value": "approximately 40 fold"}, {"measurement": "treated mice with no evidence of disease upon sacrifice", "setting": "[3]; [6]", "value": "~80", "unit": "%"}, {"measurement": "factors controlling the growth of blood vessels", "setting": "[4]", "value": "decreased"}]}
